Calls of active or inactive are those of the source. The calls are words filed in the database; no cut-off is given here.
Legend:
[1] = system: B16; test: Antineoplastic activity against mouse B16 cells allografted in BDF1 mouse at 30 mg/kg qd for 9 days relative to control; assay type: functional
[2] = system: Colon 26; test: Antineoplastic activity against mouse Colon 26 cells allografted in CDF1 mouse assessed as survival at 7.5 mg/kg qd for 9 days; assay type: functional, organism-based; set-up: dose 7.5 mg/kg
[3] = system: P388; test: Antineoplastic activity against mouse P388 cells allografted in CDF1 mouse assessed as survival at 5 mg/kg qd for 9 days; assay type: functional, organism-based; set-up: dose 5 mg/kg
[4] = system: L1210; test: Antineoplastic activity against mouse L1210 cells allografted in CDF1 mouse assessed as survival at 15 mg/kg qd for 9 days; assay type: functional, organism-based; set-up: dose 15 mg/kg
[5] = system: P388; test: Antineoplastic activity against mouse P388 cells allografted in CDF1 mouse at 20 mg/kg qd for 9 days relative to control; assay type: functional
[6] = system: L1210; test: Antineoplastic activity against mouse L1210 cells allografted in CDF1 mouse at 15 mg/kg qd for 9 days relative to control; assay type: functional
[7] = system: B16; test: Antineoplastic activity against mouse B16 cells allografted in BDF1 mouse assessed as survival at 1.88 mg/kg qd for 9 days; assay type: functional, organism-based; set-up: dose 1.88 mg/kg
[8] = system: L1210; test: Antineoplastic activity against mouse L1210 cells allografted in CDF1 mouse at 7.5 mg/kg qd for 9 days relative to control; assay type: functional
[9] = system: P388; test: Antineoplastic activity against mouse P388 cells allografted in CDF1 mouse at 5 mg/kg qd for 9 days relative to control; assay type: functional
[10] = system: B16; test: Antineoplastic activity against mouse B16 cells allografted in BDF1 mouse assessed as survival at 15 mg/kg qd for 9 days; assay type: functional, organism-based; set-up: dose 15 mg/kg
[11] = system: L1210; test: Antineoplastic activity against mouse L1210 cells allografted in CDF1 mouse at 1.88 mg/kg qd for 9 days relative to control; assay type: functional
[12] = system: Colon 26; test: Antineoplastic activity against mouse Colon 26 cells allografted in CDF1 mouse assessed as survival at 1.88 mg/kg qd for 9 days; assay type: functional, organism-based; set-up: dose 1.88 mg/kg
[13] = system: B16; test: Antineoplastic activity against mouse B16 cells allografted in BDF1 mouse at 3.75 mg/kg qd for 9 days relative to control; assay type: functional
[14] = system: P388; test: Antineoplastic activity against mouse P388 cells allografted in CDF1 mouse assessed as survival at 20 mg/kg qd for 9 days; assay type: functional, organism-based; set-up: dose 20 mg/kg
[15] = system: L1210; test: Antineoplastic activity against mouse L1210 cells allografted in CDF1 mouse assessed as survival at 1.88 mg/kg qd for 9 days; assay type: functional, organism-based; set-up: dose 1.88 mg/kg
[16] = system: P388; test: Antineoplastic activity against mouse P388 cells allografted in CDF1 mouse at 2.5 mg/kg qd for 9 days relative to control; assay type: functional
[17] = system: L1210; test: Antineoplastic activity against mouse L1210 cells allografted in CDF1 mouse assessed as survival at 3.75 mg/kg qd for 9 days; assay type: functional, organism-based; set-up: dose 3.75 mg/kg
[18] = system: B16; test: Antineoplastic activity against mouse B16 cells allografted in BDF1 mouse at 1.88 mg/kg qd for 9 days relative to control; assay type: functional
[19] = system: Colon 26; test: Antineoplastic activity against mouse Colon 26 cells allografted in CDF1 mouse at 15 mg/kg qd for 9 days relative to control; assay type: functional
[20] = system: P388; test: Antineoplastic activity against mouse P388 cells allografted in CDF1 mouse at 10 mg/kg qd for 9 days relative to control; assay type: functional
[21] = system: B16; test: Antineoplastic activity against mouse B16 cells allografted in BDF1 mouse at 7.5 mg/kg qd for 9 days relative to control; assay type: functional
[22] = system: L1210; test: Antineoplastic activity against mouse L1210 cells allografted in CDF1 mouse at 3.75 mg/kg qd for 9 days relative to control; assay type: functional
[23] = system: B16; test: Antineoplastic activity against mouse B16 cells allografted in BDF1 mouse assessed as survival at 7.5 mg/kg qd for 9 days; assay type: functional, organism-based; set-up: dose 7.5 mg/kg
[24] = system: Colon 26; test: Antineoplastic activity against mouse Colon 26 cells allografted in CDF1 mouse at 1.88 mg/kg qd for 9 days relative to control; assay type: functional
[25] = system: B16; test: Antineoplastic activity against mouse B16 cells allografted in BDF1 mouse assessed as survival at 3.75 mg/kg qd for 9 days; assay type: functional, organism-based; set-up: dose 3.75 mg/kg
[26] = system: Colon 26; test: Antineoplastic activity against mouse Colon 26 cells allografted in CDF1 mouse assessed as survival at 3.75 mg/kg qd for 9 days; assay type: functional, organism-based; set-up: dose 3.75 mg/kg
[27] = system: B16; test: Antineoplastic activity against mouse B16 cells allografted in BDF1 mouse assessed as survival at 30 mg/kg qd for 9 days; assay type: functional, organism-based; set-up: dose 30 mg/kg
[28] = system: L1210; test: Antineoplastic activity against mouse L1210 cells allografted in CDF1 mouse assessed as survival at 7.5 mg/kg qd for 9 days; assay type: functional, organism-based; set-up: dose 7.5 mg/kg
[29] = system: Colon 26; test: Antineoplastic activity against mouse Colon 26 cells allografted in CDF1 mouse assessed as survival at 15 mg/kg qd for 9 days; assay type: functional, organism-based; set-up: dose 15 mg/kg
[30] = system: Colon 26; test: Antineoplastic activity against mouse Colon 26 cells allografted in CDF1 mouse at 3.75 mg/kg qd for 9 days relative to control; assay type: functional
[31] = system: Colon 26; test: Antineoplastic activity against mouse Colon 26 cells allografted in CDF1 mouse at 7.5 mg/kg qd for 9 days relative to control; assay type: functional
[32] = system: P388; test: Antineoplastic activity against mouse P388 cells allografted in CDF1 mouse assessed as survival at 10 mg/kg qd for 9 days; assay type: functional, organism-based; set-up: dose 10 mg/kg
[33] = system: B16; test: Antineoplastic activity against mouse B16 cells allografted in BDF1 mouse at 15 mg/kg qd for 9 days relative to control; assay type: functional
[34] = system: P388; test: Antineoplastic activity against mouse P388 cells allografted in CDF1 mouse assessed as survival at 2.5 mg/kg qd for 9 days; assay type: functional, organism-based; set-up: dose 2.5 mg/kg

O=C1c2ccccc2C(=O)c2c(NCCNCCO)ccc(O)c21
T/C [1]: 326% | Activity [2]: Active | Activity [3]: Active | Activity [4]: Active | T/C [5]: 178% | T/C [6]: 151% | Activity [7]: Active | T/C [8]: 193% | T/C [9]: 226% | Activity [10]: Active | T/C [11]: 136% | Activity [12]: Active | T/C [13]: 201% | Activity [14]: Active | Activity [15]: Active | T/C [16]: 216% | Activity [17]: Active | T/C [18]: 157% | T/C [19]: 182% | T/C [20]: 342% | T/C [21]: 254% | T/C [22]: 147% | Activity [23]: Active | T/C [24]: 162% | Activity [25]: Active | Activity [26]: Active | Activity [27]: Active | Activity [28]: Active | Activity [29]: Active | T/C [30]: 177% | T/C [31]: 196% | Activity [32]: Active | T/C [33]: 271% | Activity [34]: Active

Reference: ChEMBL document CHEMBL3244053, “Structural modification study of bis(substituted aminoalkylamino)anthraquinones. An evaluation of the relationship of the [2-[(2-hydroxyethyl)amino]ethyl]amino side chain with antineoplastic activity” (1979)
